# Reference: patent US7026360B1, “Pharmaceutical compositions containing compounds with activity for the enhancement of absorption of active ingredients” (Inpharma S.A., priority 1999, dated 2006)
# Test: Absorption after 8 hours of topical antiinflammatory formulations with or without 3% PFPE through pig skin, Franz cells (Example C)
# Format: in vitro ADME
# Conditions: topical formulation; for mcg of permeated active ingredient after 8 hours, Base formula: base formula without PFPE
# Procedure: Apparatus: Franz Cells (manufacturer: Crown Glass Company Inc., New Jersey) Franz diffusion cells are one of the main systems used for the investigation of ex-vivo permeation. This study involved the use of three cells each with a 9 mm diameter donor compartment corresponding with a diffusion area of 64 mm^2. The receptor compartment has a capacity of 4.8 ml. The receptor chamber is heated to 37° C.± 1. The pig skin is placed between the donor compartment and the receptor chamber with the external skin surface facing the upper compartment. The test formulation is placed inside the donor compartment. The receptor chamber is filled with a phosphate buffer solution at pH 7.4 and at intervals between 0.5 and 8 hours, 2 ml of solution are drawn from this chamber. When each sample is taken fresh buffer solution heated to 37° C. is added in order to replenish the initial volume. The samples are then tested using a HPLC method. Each test is repeated three times. Verification of absorption after 8 hours, of topical formulations containing antiinflammatory drugs versus formulations which also contain 3% PFPE, through pig skin, using Franz cells, as described in Example A.
Compound,"mcg of permeated active ingredient after 8 hours, Base formula + 3% PFPE","mcg of permeated active ingredient after 8 hours, Base formula"
O=C(O)Cc1ccccc1Nc1c(Cl)cccc1Cl [Diclofenac Sodium],8.66 µg,1.82 µg
CN1C(C(=O)Nc2ccccn2)=C(O)c2ccccc2S1(=O)=O [Piroxicam],7.94 µg,1.19 µg
CCc1cccc2c3c([nH]c12)C(CC)(CC(=O)O)OCC3 (centres unmarked) [Etodolic Acid],9.93 µg,0.53 µg
CC(C)Cc1ccc(C(C)C(=O)O)cc1 (centres unmarked) [Ibuprofen],6.84 µg,0.21 µg
